The test system of data set [1] is Renilla luciferase HCV replicon cells (2209-23). As to the kind of experiment: Renilla luciferase Assay (HCV replicon). The format is cell-based. Particulars: Huh-7, 72 h; replicon cells 2209-23 (Huh7), three days incubation; read-out: R. luciferase Activity IC50.
In another data set the target is T1, HCV NS5B570n-BK (Hepatitis C virus genotype 1b, UniProt P26663).
T1 construct: histidine tag (N); made in house; host or cells: E. coli strain M15
As to the kind of experiment: HCV NS5B RNA Polymerase Activity. The format is biochemical. The protocol: The enzymatic activity of HCV NS5B570n-BK is measured as incorporation of radiolabeled nucleotide monophosphates into acid insoluble RNA products. Unincorporated radiolabel substrate is removed by filtration and scintillant is added to the washed and dried filter plate containing radiolabeled RNA product. The light emitted by the scintillant is proportional to the amount of RNA product generated by NS5B570n-BK at the endpoint of the reaction.
The N-terminally histidine tagged HCV polymerase, derived from HCV BK strain, genotype 1b (NS5B570n-BK) contains a 21 amino acid deletion at the C-terminus relative to the full-length HCV polymerase and is purified from E. coli strain M15. The construct containing the coding sequence of HCV BK strain amino acid residues 2421-2999 (GenBank accession number M58335) downstream of a […] promoter expression cassette was inserted into plasmid constructs. The plasmid constructs are transformed in E. coli and colonies are inoculated and grown overnight in 10 L of Terrific broth (Tartoff and Hobbs) supplemented with 100 μg/mL ampicillin at 37° C. Protein expression is induced by addition of 1 mM isopropyl-β-D-thiogalactopyranoside (IPTG), when optical densities reaches between 1.5 and 3.5 OD600 and the culture is then incubated for 16- to 18 h at 22° C. NS5B570n-BK is purified to homogeneity using a three step protocol including subsequent column chromatography on Ni-NTA, SP-Sepharose HP and Superdex 75 resins. […]
The amount of light emitted from the scintillant is converted to counts per minute (CPM) on a Topcount® plate reader (Perkin-Elmer, Energy Range: Low, Efficiency Mode: Normal, Count Time: 1 min, Background Subtract: none, Cross talk reduction: Off).
Data is analyzed with GraphPad® Prism® and/or Microsoft® Excel®. […] All data is expressed as a percentage of the positive control. […]

The next data set deals with HCV. To be noted: ribavirin monotherapy; cited from earlier work.

pIC50: −log10 of the molar value. Where two headings read alike, the source gives them in different places. Some results are limits rather than exact numbers.

T1 sequence (P26663 2420-2989): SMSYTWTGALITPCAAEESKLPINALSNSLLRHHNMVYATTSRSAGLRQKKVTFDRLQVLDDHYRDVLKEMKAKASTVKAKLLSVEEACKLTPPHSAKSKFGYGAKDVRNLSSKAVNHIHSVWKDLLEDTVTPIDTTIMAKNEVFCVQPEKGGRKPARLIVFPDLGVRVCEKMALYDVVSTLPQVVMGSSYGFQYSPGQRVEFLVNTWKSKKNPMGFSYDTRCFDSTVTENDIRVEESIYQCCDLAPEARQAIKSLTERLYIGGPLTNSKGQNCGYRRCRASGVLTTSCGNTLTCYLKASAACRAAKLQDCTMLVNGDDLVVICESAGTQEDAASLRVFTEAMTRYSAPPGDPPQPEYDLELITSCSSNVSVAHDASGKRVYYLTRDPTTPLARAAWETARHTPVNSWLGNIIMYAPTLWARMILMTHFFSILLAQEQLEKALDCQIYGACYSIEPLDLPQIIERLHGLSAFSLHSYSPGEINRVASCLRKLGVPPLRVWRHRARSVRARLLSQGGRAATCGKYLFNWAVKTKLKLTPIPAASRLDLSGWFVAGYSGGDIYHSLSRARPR

`CC1=C(C2=C(O)[C@H](C(C)(C)C)N(Cc3ccc(F)cc3)C2=O)Nc2ccc(NS(C)(=O)=O)cc2S1(=O)=O` gave a melting point of 170 to 174 °C.
The same measure, in the same setting: to `CCS(=O)(=O)Nc1ccc2c(c1)S(=O)(=O)C(Cl)=C(C1=C(O)[C@H](C(C)(C)C)N(Cc3ccc(F)c(Cl)c3)C1=O)N2` belongs 140 to 144 °C; to `CC(C)(C)[C@H]1C(O)=C(C2=C(Cl)S(=O)(=O)c3cc(NS(=O)(=O)C4CC4)ccc3N2)C(=O)N1Cc1ccc(F)c(Cl)c1`, 137 to 141 °C.
The same measure, in the same setting: with `CCS(=O)(=O)Nc1ccc2c(c1)S(=O)(=O)C(Cl)=C(C1=C(O)[C@H](C(C)(C)C)N(CCC(C)C)C1=O)N2` the figure was 125 to 165 °C; with `CC(C)(C)[C@H]1C(O)=C(C2=C(Cl)S(=O)(=O)c3cc(NS(C)(=O)=O)ccc3N2)C(=O)N1Cc1ccccc1`, 148 to 152 °C; with `CC(C)(C)[C@H]1C(O)=C(C2=C(Cl)S(=O)(=O)c3cc(NS(C)(=O)=O)ccc3N2)C(=O)N1CCC1CCCC1`, 137 to 141 °C.
On to `COc1cc(CN2C(=O)C(C3=C(Cl)S(=O)(=O)c4cc(NS(C)(=O)=O)ccc4N3)=C(O)[C@@H]2C(C)(C)C)ccc1F`, for which the melting point was 139 to 144 °C.
Same read-out and setting: to `CC(C)CCN1C(=O)C(C2=C(Cl)S(=O)(=O)c3cc(NS(C)(=O)=O)ccc3N2)=C(O)[C@@H]1C(C)(C)C` belongs 142 to 145 °C; to `CN(C)C(=O)C1=C(C2=C(O)[C@H](C(C)(C)C)N(Cc3ccc(F)cc3)C2=O)Nc2ccc(NS(C)(=O)=O)cc2S1(=O)=O`, 140 °C.
The same measure, in the same setting: to `COc1cc(CN2C(=O)C(C3=C(C#N)S(=O)(=O)c4cc(NS(C)(=O)=O)ccc4N3)=C(O)C2C(C)(C)C)ccc1F` (stereo not shown) belongs 218 °C; to `Cc1cc(CN2C(=O)C(C3=C(C#N)S(=O)(=O)c4cc(NS(C)(=O)=O)ccc4N3)=C(O)C2C(C)(C)C)ccc1F` (stereo not shown), more than 250 °C; to `CC(C)CCN1C(=O)C(C2=C(C#N)S(=O)(=O)c3cc(NS(C)(=O)=O)ccc3N2)=C(O)C1C(C)(C)C` (stereo not shown), more than 250 °C.
In turn, `CC(C)(C)C1C(O)=C(C2=C(C#N)S(=O)(=O)c3cc(NS(C)(=O)=O)ccc3N2)C(=O)N1CCC1CCCC1` (stereo not shown) yielded a melting point of more than 250 °C.
Molecule `CC(C)CCN1C(=O)C(C2=C(C(N)=O)S(=O)(=O)c3cc(NS(C)(=O)=O)ccc3N2)=C(O)[C@@H]1C(C)(C)C` yielded a melting point of 150 to 155 °C.
The same measure, in the same setting: to `Cc1cc(CN2C(=O)C(C3=C(C(N)=O)S(=O)(=O)c4cc(NS(C)(=O)=O)ccc4N3)=C(O)[C@@H]2C(C)(C)C)ccc1F` belongs 168 to 172 °C.
On the same count and under the same terms, with `CC1=C(C2=C(O)[C@H](C(C)(C)C)N(CCC(C)C)C2=O)Nc2ccc(NS(C)(=O)=O)cc2S1(=O)=O` the figure was 210 to 215 °C; with `CC(C)(C)[C@H]1c2oc(=O)c3c(c2C(=O)N1Cc1ccc(F)cc1)Nc1ccc(NS(C)(=O)=O)cc1S3(=O)=O`, 120 °C.
Same read-out and setting: with `CCS(=O)(=O)Nc1ccc2c(c1)S(=O)(=O)C(Cl)=C(C1=C(O)[C@H](C(C)(C)C)N(Cc3ccc(F)cc3)C1=O)N2` the figure was 136 to 140 °C; with `CC(C)(C)[C@H]1C(O)=C(C2=C(Cl)S(=O)(=O)c3cc(NS(=O)(=O)C4CC4)ccc3N2)C(=O)N1Cc1ccc(F)cc1`, 137 to 141 °C; with `Cc1cc(CN2C(=O)C(C3=C(Cl)S(=O)(=O)c4cc(NS(C)(=O)=O)ccc4N3)=C(O)[C@@H]2C(C)(C)C)ccc1F`, 140 to 146 °C.
Molecule `CCS(=O)(=O)Nc1ccc2c(c1)S(=O)(=O)C(Cl)=C(C1=C(O)[C@H](C(C)(C)C)N(Cc3ccc(F)c(C)c3)C1=O)N2` had a melting point of 130 to 135 °C.
The same measure, in the same setting: with `Cc1cc(CN2C(=O)C(C3=C(Cl)S(=O)(=O)c4cc(NS(=O)(=O)C5CC5)ccc4N3)=C(O)[C@@H]2C(C)(C)C)ccc1F` the figure was 127 to 131 °C; with `CC(C)(C)[C@H]1C(O)=C(C2=C(Cl)S(=O)(=O)c3cc(NS(C)(=O)=O)ccc3N2)C(=O)N1Cc1ccc(F)c(Cl)c1`, 147 to 151 °C.
The molecule `CC(C)(C)[C@H]1C(O)=C(C2=C(Cl)S(=O)(=O)c3cc(NS(C)(=O)=O)ccc3N2)C(=O)N1Cc1ccc(F)cc1` [Compound I-3, N-{3-[(S)-5-tert-Butyl-1-(4-fluoro-benzyl)-4-hydroxy-2-oxo-2,5-dihydro-1H-pyrrol-3-yl]-2-chloro-1,1-dioxo-1,4-dihydro-1λ^6-benzo[1,4]thiazin-7-yl}-methanesulfonamide] had a melting point of 144 to 148 °C. In addition, the negative-log IC50 (pIC50) in data set [1] was 8.40. On HCV NS5B570n-BK, this molecule had a pIC50 of 8.70.
With `Cc1cc(CN2C(=O)C(C3=C(F)S(=O)(=O)c4cc(NS(C)(=O)=O)ccc4N3)=C(O)[C@@H]2C(C)(C)C)ccc1F` [Compound I-18, N-{3-[(S)-5-tert-Butyl-1-(4-fluoro-3-methyl-benzyl)-4-hydroxy-2-oxo-2,5-dihydro-1H-pyrrol-3-yl]-2-fluoro-1,1-dioxo-1,4-dihydro-1λ^6-benzo[1,4]thiazin-7-yl}-methanesulfonamide], the negative logarithm of the IC50 (pIC50) was 7.80 in data set [1] and 8.30 on HCV NS5B570n-BK (NS5B570n-BK, poly A:oligo U16, tritiated UTP incorporation, read-out: Polymerase Assay IC50).
As for `CC(C)(C)C1C(O)=C(C2=C(C#N)S(=O)(=O)c3cc(NS(C)(=O)=O)ccc3N2)C(=O)N1Cc1ccc(F)cc1` (stereo not shown) [Compound I-19, N-{3-[5-tert-Butyl-1-(4-fluoro-benzyl)-4-hydroxy-2-oxo-2,5-dihydro-1H-pyrrol-3-yl]-2-cyano-1,1-dioxo-1,4-dihydro-1λ^6-benzo[1,4]thiazin-7-yl}-methanesulfonamide], the pIC50 was 7.80 in data set [1] and 8.22 on HCV NS5B570n-BK.
Consider `NC(=O)c1ncn([C@@H]2O[C@H](CO)[C@@H](O)[C@H]2O)n1` [ribavirin, 1-((2R,3R,4S,5R)-3,4-Dihydroxy-5-hydroxymethyl-tetrahydro-furan-2-yl)-1H-[1,2,4]triazole-3-carboxylic acid amide], for which the “patients in whom serum amino transferase levels are reduced to normal” value in the data set with HCV is 40%.

(Values after US7531534B2, “Heterocyclic antiviral compounds” (Roche Palo Alto LLC, priority 2006, dated 2009).)
